Measurements taken from patent US7098209B2, “Pyrazino [1'2':1,6 ] pyrido [3, 4-b] indole-1,4-dione derivatives” (Lilly Icos LLC, priority 2001, dated 2006).

Experiments:
recombinant human PDE5 = recombinant human PDE5 (Homo sapiens, UniProt O76074); assay: Inhibitory effect on cGMP-PDE (PDE5 IC50 determination); assay type: biochemical; settings: in vitro
Description: The compounds of structural formula (I) were tested for an ability to inhibit PDE5. The ability of a compound to inhibit PDE5 activity is related to the IC50 value for the compound, i.e., the concentration of inhibitor required for 50% inhibition of enzyme activity. The IC50 value for compounds of structural formula (I) were determined using recombinant human PDE5.
Phosphodiesterase activity of the preparations was determined as follows. PDE assays utilizing a charcoal separation technique were performed essentially as described in Loughney et al. (1996). In this assay, PDE activity converts [32P]cAMP or [32P]cGMP to the corresponding [32P]5′-AMP or [32P]5′-GMP in proportion to the amount of PDE activity present. The [32P]5′-AMP or [32P]5′-GMP then was quantitatively converted to free [32P]phosphate and unlabeled adenosine or guanosine by the action of snake venom 5′-nucleotidase. […] The assay was performed at 30° C. in a 100 μL reaction mixture containing (final concentrations) 40 mM Tris HCl (pH 8.0), 1 μM ZnSO4, 5 mM MgCl2, and 0.1 mg/mL bovine serum albumin (BSA). PDE enzyme was present in quantities that yield <30% total hydrolysis of substrate (linear assay conditions). The assay was initiated by addition of substrate ([…] [32P]cAMP or cGMP), and the mixture was incubated for 12 minutes. seventy-five (75) μg of Crotalus atrox venom then was added, and the incubation was continued for 3 minutes (15 minutes total). The reaction was stopped by addition of 200 μL of activated charcoal (25 mg/mL suspension in 0.1 M NaH2PO4, pH 4). After centrifugation (750×g for 3 minutes) to sediment the charcoal, a sample of the supernatant was taken for radioactivity determination in a scintillation counter and the PDE activity was calculated.
cGMP-PDE activity of compounds of the present invention was measured using a one-step assay adapted from Wells et al., Biochim. Biophys. Acta, 384, 430 (1975). The reaction medium contained 50 mM Tris-HCl, pH 7.5, 5 mM magnesium acetate, 250 μg/ml 5′-Nucleotidase, 1 mM EGTA, and 0.15 μM 8-[H^3]-cGMP. Unless otherwise indicated, the enzyme used was a human recombinant PDE5 (ICOS Corp., Bothell, Wash.).
Compounds of the invention were dissolved in DMSO finally present at 2% in the assay.

| IC50 (recombinant human PDE5) [nM] | melting point [°C] | SMILES |
| --- | --- | --- |
| 124 | 386 to 387 | CN1CC(=O)N2[C@H](c3ccc4c(c3)OCO4)c3c(c4ccccc4n3C)C[C@H]2C1=O [Example 1, (6R,12aS)-6-Benzo[1,3]dioxol-5-yl-2,7-dimethyl-2,3,6,7,12,12a-hexahydropyrazino[1′,2′:1,6]-pyrido[3,4-b]indole-1,4-dione] |
| 571 |  | CN1CC(=O)N2[C@H](c3ccc4c(c3)OCO4)c3c(c4ccccc4n3C)C[C@@H]2C1=O [Example 2, (6R,12aR)-6-Benzo[1,3]dioxol-5-yl-2,7-dimethyl-2,3,6,7,12,12a-hexahydropyrazino[1′,2′:1,6]-pyrido[3,4-b]indole-1,4-dione] |
| 313 | 110 to 145 | CN1CC(=O)N2[C@H](c3ccc4c(c3)OCO4)c3c(c4ccccc4n3Cc3ccccc3)C[C@H]2C1=O [Example 3, (6R,12aS)-6-Benzo[1,3]dioxol-5-yl-7-benzyl-2-methyl-2,3,6,7,12,12a-hexahydropyrazino-[1′,2′:1,6]pyrido[3,4-b]indole-1,4-dione] |
| 7 | 145 to 159 | CC(=O)n1c2c(c3ccccc31)C[C@@H]1C(=O)N(C)CC(=O)N1[C@@H]2c1ccc2c(c1)OCO2 [Example 4, (6R,12aR)-7-Acetyl-6-benzo[1,3]dioxol-5-yl-2-methyl-2,3,6,7,12,12a-hexahydropyrazino-[1′,2′:1,6]pyrido[3,4-b]indole-1,4-dione] |
